Where “and” joins values, the source holds several entries; their conditions need not be identical. Identical values can stand only once.
Tests used:
BRM = biological target: T1, BRM (Homo sapiens, UniProt P51531); test: ATPase catalytic activity of BRM, ADP-Glo in vitro biochemical assay; conditions: ATPase catalytic activity, 30 nM BRM, 400 μM ATP, read-out: BRM IP50 (μM)*
T1 construct: made in house; host or cells: High Five insect cells

BRG-1 = biological target: T2, BRG-1 (Homo sapiens, UniProt P51532); test: ATPase catalytic activity of BRG-1, ADP-Glo in vitro biochemical assay; conditions: ATPase catalytic activity, 30 nM BRG-1, 400 μM ATP, read-out: BRG1 IP50 (μM)*
T2 construct: made in house; host or cells: High Five insect cells
T2 sequence (P51532 whole entry): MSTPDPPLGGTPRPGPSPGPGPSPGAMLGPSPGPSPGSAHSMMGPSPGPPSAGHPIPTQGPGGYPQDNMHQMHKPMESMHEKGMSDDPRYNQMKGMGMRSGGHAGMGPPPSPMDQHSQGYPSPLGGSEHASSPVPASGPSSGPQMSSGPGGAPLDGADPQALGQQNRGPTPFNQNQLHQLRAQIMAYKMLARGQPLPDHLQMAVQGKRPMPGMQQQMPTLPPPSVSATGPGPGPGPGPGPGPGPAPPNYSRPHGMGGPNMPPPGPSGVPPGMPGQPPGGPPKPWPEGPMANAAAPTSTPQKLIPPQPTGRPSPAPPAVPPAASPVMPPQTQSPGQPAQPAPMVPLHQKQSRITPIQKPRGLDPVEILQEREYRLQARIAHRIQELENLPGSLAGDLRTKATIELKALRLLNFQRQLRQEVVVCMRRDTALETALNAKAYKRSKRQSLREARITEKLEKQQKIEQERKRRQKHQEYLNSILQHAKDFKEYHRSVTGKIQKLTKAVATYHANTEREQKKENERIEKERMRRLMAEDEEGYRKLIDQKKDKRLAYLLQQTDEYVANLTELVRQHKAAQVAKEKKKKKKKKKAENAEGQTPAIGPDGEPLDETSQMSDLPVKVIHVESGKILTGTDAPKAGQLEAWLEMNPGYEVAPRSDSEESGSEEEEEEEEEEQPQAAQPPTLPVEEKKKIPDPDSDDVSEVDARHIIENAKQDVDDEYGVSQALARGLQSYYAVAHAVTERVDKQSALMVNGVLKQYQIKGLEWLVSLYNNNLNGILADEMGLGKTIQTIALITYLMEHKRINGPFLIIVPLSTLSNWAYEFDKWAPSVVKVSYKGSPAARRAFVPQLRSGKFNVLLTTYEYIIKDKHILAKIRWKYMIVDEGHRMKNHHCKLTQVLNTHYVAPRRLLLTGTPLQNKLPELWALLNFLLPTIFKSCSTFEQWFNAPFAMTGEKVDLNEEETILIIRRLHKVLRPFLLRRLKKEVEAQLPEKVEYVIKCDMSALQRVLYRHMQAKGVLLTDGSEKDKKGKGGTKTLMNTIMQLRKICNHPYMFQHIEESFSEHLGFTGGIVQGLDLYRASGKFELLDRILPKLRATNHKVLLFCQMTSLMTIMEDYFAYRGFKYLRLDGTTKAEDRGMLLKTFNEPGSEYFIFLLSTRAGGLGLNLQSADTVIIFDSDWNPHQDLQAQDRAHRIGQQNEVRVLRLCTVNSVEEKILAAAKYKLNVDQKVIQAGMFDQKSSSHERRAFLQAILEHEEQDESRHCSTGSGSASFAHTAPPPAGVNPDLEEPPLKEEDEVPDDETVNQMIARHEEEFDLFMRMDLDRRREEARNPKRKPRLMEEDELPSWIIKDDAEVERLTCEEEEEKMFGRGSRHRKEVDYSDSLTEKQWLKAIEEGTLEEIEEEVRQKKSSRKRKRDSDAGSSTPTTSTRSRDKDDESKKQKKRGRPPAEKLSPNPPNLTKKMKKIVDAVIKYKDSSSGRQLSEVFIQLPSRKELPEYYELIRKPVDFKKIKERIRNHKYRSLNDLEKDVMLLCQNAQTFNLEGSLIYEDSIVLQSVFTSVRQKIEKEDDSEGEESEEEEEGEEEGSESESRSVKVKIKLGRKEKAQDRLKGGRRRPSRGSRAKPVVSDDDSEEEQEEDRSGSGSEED

T1 sequence (P51531 whole entry): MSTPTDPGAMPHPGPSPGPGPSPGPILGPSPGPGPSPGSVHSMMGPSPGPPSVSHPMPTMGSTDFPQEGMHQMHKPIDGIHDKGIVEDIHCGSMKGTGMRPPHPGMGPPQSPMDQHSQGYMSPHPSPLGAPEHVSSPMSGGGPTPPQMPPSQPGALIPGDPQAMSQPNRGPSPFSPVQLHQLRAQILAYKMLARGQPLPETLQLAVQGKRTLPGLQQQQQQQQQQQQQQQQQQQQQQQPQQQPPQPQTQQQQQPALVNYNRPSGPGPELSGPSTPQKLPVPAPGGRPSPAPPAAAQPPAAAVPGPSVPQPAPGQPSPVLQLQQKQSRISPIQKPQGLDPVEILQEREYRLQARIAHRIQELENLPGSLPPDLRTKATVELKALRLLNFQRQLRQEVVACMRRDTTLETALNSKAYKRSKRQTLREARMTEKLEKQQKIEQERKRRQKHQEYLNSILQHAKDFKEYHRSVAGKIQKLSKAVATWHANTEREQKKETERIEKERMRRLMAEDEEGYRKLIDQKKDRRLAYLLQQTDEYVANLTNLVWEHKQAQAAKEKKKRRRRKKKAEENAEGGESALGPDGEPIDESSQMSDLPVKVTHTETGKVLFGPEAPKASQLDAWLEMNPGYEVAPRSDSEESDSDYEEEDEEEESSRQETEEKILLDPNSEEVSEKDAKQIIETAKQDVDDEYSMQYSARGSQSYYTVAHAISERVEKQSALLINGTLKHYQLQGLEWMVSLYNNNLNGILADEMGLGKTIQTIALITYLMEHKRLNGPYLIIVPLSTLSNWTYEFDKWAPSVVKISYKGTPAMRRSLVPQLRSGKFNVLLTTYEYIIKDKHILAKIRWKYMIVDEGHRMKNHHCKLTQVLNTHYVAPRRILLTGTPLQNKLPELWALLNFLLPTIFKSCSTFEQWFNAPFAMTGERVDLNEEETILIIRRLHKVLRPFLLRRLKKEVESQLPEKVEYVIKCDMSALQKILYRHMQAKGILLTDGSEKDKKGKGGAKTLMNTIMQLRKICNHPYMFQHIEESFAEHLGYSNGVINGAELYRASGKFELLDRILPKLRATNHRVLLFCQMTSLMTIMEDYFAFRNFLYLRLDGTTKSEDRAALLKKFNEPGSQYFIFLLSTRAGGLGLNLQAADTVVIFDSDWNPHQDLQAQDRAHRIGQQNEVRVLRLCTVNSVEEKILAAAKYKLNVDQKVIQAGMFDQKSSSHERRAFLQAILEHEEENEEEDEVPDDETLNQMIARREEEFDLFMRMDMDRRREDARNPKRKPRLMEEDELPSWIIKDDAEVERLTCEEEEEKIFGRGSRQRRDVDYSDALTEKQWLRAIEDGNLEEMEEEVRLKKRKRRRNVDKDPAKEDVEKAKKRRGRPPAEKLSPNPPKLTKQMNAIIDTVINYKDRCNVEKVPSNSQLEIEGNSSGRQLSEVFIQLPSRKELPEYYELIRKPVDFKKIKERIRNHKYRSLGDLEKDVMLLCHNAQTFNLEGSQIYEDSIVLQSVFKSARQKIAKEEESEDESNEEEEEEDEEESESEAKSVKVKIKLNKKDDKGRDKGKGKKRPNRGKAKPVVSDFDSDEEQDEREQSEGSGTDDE

SMILES | IC50 (BRM) | IC50 (BRG-1)
CS(=O)(=O)n1ccc(C(=O)NCC(=O)Nc2nc(-c3cccc(-c4ccnc(N5CCNCC5)c4)c3)cs2)c1 [Compound 54, 1-(methylsulfonyl)-N-(2-oxo-2-((4-(3-(2-(piperazin-1-yl)pyridin-4-yl)phenyl)thiazol-2-yl)amino)ethyl)-1H-pyrrole-3-carboxamide] | < 0.01 µM | < 0.01 µM
Cc1cc(C)cc(-c2cccc(-c3csc(NC(=O)CNC(=O)c4ccn(S(C)(=O)=O)c4)n3)c2)c1 [Compound 55, N-(2-((4-(3′,5′-dimethyl-[1,1′-biphenyl]-3-yl)thiazol-2-yl)amino)-2-oxoethyl)-1-(methylsulfonyl)-1H-pyrrole-3-carboxamide] | < 0.01 µM | < 0.01 µM
Cc1cc(-c2cccc(-c3csc(NC(=O)CNC(=O)c4ccn(C(C)(C)C)c4)n3)c2)on1 [Compound 56, 1-(tert-butyl)-N-(2-((4-(3-(3-methylisoxazol-5-yl)phenyl)thiazol-2-yl)amino)-2-oxoethyl)-1H-pyrrole-3-carboxamide] | > 0.01 µM | > 0.01 µM
CC(=O)N(C)c1cc(-c2cccc(-c3csc(NC(=O)CNC(=O)c4ccn(S(C)(=O)=O)c4)n3)c2)ccn1 [Compound 57, N-(2-((4-(3-(2-(N-methylacetamido)pyridin-4-yl)phenyl)thiazol-2-yl)amino)-2-oxoethyl)-1-(methylsulfonyl)-1H-pyrrole-3-carboxamide] | < 0.01 µM | < 0.01 µM
Cn1ccc(-c2cccc(-c3csc(NC(=O)CNC(=O)c4ccn(C(C)(C)C)c4)n3)c2)n1 [Compound 58, 1-(tert-butyl)-N-(2-((4-(3-(1-methyl-1H-pyrazol-3-yl)phenyl)thiazol-2-yl)amino)-2-oxoethyl)-1H-pyrrole-3-carboxamide] | > 0.01 µM | > 0.01 µM
CSCC[C@H](NC(=O)c1ccn(S(C)(=O)=O)c1)C(=O)Nc1nc(-c2cccc(-c3ccnc(C)c3)c2)cs1 [Compound 59, (S)—N-(1-((4-(3-(2-methylpyridin-4-yl)phenyl)thiazol-2-yl)amino)-4-(methylthio)-1-oxobutan-2-yl)-1-(methylsulfonyl)-1H-pyrrole-3-carboxamide] | < 0.01 µM | < 0.01 µM
COC[C@H](NC(=O)c1ccn(S(C)(=O)=O)c1)C(=O)Nc1nc(-c2cccc(-c3ccnc(C)c3)c2)cs1 [Compound 60, (S)—N-(3-methoxy-1-((4-(3-(2-methylpyridin-4-yl)phenyl)thiazol-2-yl)amino)-1-oxopropan-2-yl)-1-(methylsulfonyl)-1H-pyrrole-3-carboxamide] | < 0.01 µM | < 0.01 µM
COC[C@H](NC(=O)c1ccn(S(C)(=O)=O)c1)C(=O)Nc1nc(-c2cccc(-c3cc(C)nc(C)c3)c2)cs1 [Compound 61, (S)—N-(1-((4-(3-(2,6-dimethylpyridin-4-yl)phenyl)thiazol-2-yl)amino)-3-methoxy-1-oxopropan-2-yl)-1-(methylsulfonyl)-1H-pyrrole-3-carboxamide] | < 0.01 µM | < 0.01 µM
COC[C@H](NC(=O)c1ccn(C(C)(C)C)c1)C(=O)Nc1nc(-c2cccc(-c3ccn(C)n3)c2)cs1 [Compound 62, (S)-1-(tert-butyl)-N-(3-methoxy-1-((4-(3-(1-methyl-1H-pyrazol-3-yl)phenyl)thiazol-2-yl)amino)-1-oxopropan-2-yl)-1H-pyrrole-3-carboxamide] | > 0.01 µM | > 0.01 µM
COC[C@H](NC(=O)c1ccn(C(C)(C)C)c1)C(=O)Nc1nc(-c2ccc3ccn(C)c(=O)c3c2)cs1 [Compound 63, (S)-1-(tert-butyl)-N-(3-methoxy-1-((4-(2-methyl-1-oxo-1,2-dihydroisoquinolin-7-yl)thiazol-2-yl)amino)-1-oxopropan-2-yl)-1H-pyrrole-3-carboxamide] | > 0.01 µM | > 0.01 µM
COC[C@H](NC(=O)c1ccn(C(C)(C)C)c1)C(=O)Nc1nc(-c2ccc3c(c2)C(=O)N(C)CC3)cs1 [Compound 64, (S)-1-(tert-butyl)-N-(3-methoxy-1-((4-(2-methyl-1-oxo-1,2,3,4-tetrahydroisoquinolin-7-yl)thiazol-2-yl)amino)-1-oxopropan-2-yl)-1H-pyrrole-3-carboxamide] | > 0.01 µM | > 0.01 µM
COC[C@H](NC(=O)c1ccn(S(C)(=O)=O)c1)C(=O)Nc1nc(-c2cccc(-c3ccncn3)c2)cs1 [Compound 65, (S)—N-(3-methoxy-1-oxo-1-((4-(3-(pyrimidin-4-yl)phenyl)thiazol-2-yl)amino)propan-2-yl)-1-(methylsulfonyl)-1H-pyrrole-3-carboxamide] | < 0.01 µM | < 0.01 µM
COC[C@H](NC(=O)c1ccn(C(C)(C)C)c1)C(=O)Nc1nc(-c2cccc(-c3ccncn3)c2)cs1 [Compound 66, (S)-1-(tert-butyl)-N-(3-methoxy-1-oxo-1-((4-(3-(pyrimidin-4-yl)phenyl)thiazol-2-yl)amino)propan-2-yl)-1H-pyrrole-3-carboxamide] | > 0.01 µM | > 0.01 µM
C[C@H](NC(=O)c1ccn(S(C)(=O)=O)c1)C(=O)Nc1nc(-c2cccc(-c3ccncc3)c2)cs1 [Compound 68, N-[(1S)-1-methyl-2-oxo-2-[[4-[3-(4-pyridyl)phenyl]thiazol-2-yl]amino]ethyl]-1-methylsulfonyl-pyrrole-3-carboxamide] | < 0.01 µM | < 0.01 µM
CS(=O)(=O)n1ccc(C(=O)N[C@@H](CO)C(=O)Nc2nc(-c3cccc(-c4ccncc4)c3)cs2)c1 [Compound 69, (S)—N-(3-hydroxy-1-oxo-1-((4-(3-(pyridin-4-yl)phenyl)thiazol-2-yl)amino)propan-2-yl)-1-(methylsulfonyl)-1H-pyrrole-3-carboxamide] | < 0.01 µM | < 0.01 µM
CS(=O)(=O)n1ccc(C(=O)N[C@@H](CCO)C(=O)Nc2nc(-c3cccc(-c4ccncc4)c3)cs2)c1 [Compound 71, (S)—N-(4-hydroxy-1-oxo-1-((4-(3-(pyridin-4-yl)phenyl)thiazol-2-yl)amino)butan-2-yl)-1-(methylsulfonyl)-1H-pyrrole-3-carboxamide] | < 0.01 µM and > 0.01 µM | < 0.01 µM
COCC[C@H](NC(=O)c1ccn(S(C)(=O)=O)c1)C(=O)Nc1nc(-c2cccc(-c3ccncc3)c2)cs1 [Compound 72, (S)—N-(4-methoxy-1-oxo-1-((4-(3-(pyridin-4-yl)phenyl)thiazol-2-yl)amino)butan-2-yl)-1-(methylsulfonyl)-1H-pyrrole-3-carboxamide] | < 0.01 µM | < 0.01 µM
CC(C)[C@H](NC(=O)c1ccn(S(C)(=O)=O)c1)C(=O)Nc1nc(-c2cccc(-c3ccncc3)c2)cs1 [Compound 73, (S)—N-(3-methyl-1-oxo-1-((4-(3-(pyridin-4-yl)phenyl)thiazol-2-yl)amino)butan-2-yl)-1-(methylsulfonyl)-1H-pyrrole-3-carboxamide] | > 0.01 µM | > 0.01 µM
CC(C)(C)[C@H](NC(=O)c1ccn(S(C)(=O)=O)c1)C(=O)Nc1nc(-c2cccc(-c3ccncc3)c2)cs1 [Compound 74, (S)—N-(3,3-dimethyl-1-oxo-1-((4-(3-(pyridin-4-yl)phenyl)thiazol-2-yl)amino)butan-2-yl)-1-(methylsulfonyl)-1H-pyrrole-3-carboxamide] | > 1 µM | > 1 µM
CC(C)C[C@H](NC(=O)c1ccn(S(C)(=O)=O)c1)C(=O)Nc1nc(-c2cccc(-c3ccncc3)c2)cs1 [Compound 75, (S)—N-(4-methyl-1-oxo-1-((4-(3-(pyridin-4-yl)phenyl)thiazol-2-yl)amino)pentan-2-yl)-1-(methylsulfonyl)-1H-pyrrole-3-carboxamide] | > 0.01 µM | > 0.01 µM
CC(C)(C)C[C@H](NC(=O)c1ccn(S(C)(=O)=O)c1)C(=O)Nc1nc(-c2cccc(-c3ccncc3)c2)cs1 [Compound 76, (S)—N-(4,4-dimethyl-1-oxo-1-((4-(3-(pyridin-4-yl)phenyl)thiazol-2-yl)amino)pentan-2-yl)-1-(methylsulfonyl)-1H-pyrrole-3-carboxamide] | > 0.01 µM | > 0.01 µM
CN(C)CCC(NC(=O)c1ccn(S(C)(=O)=O)c1)C(=O)Nc1nc(-c2cccc(-c3ccncc3)c2)cs1 (stereo not shown) [Compound 77, N-(4-(dimethylamino)-1-oxo-1-((4-(3-(pyridin-4-yl)phenyl)thiazol-2-yl)amino)butan-2-yl)-1-(methylsulfonyl)-1H-pyrrole-3-carboxamide] | > 0.01 µM | > 0.01 µM
CN(C)CC[C@H](NC(=O)c1ccn(S(C)(=O)=O)c1)C(=O)Nc1nc(-c2cccc(-c3ccncc3)c2)cs1 [Compound 78, (S)—N-(4-(dimethylamino)-1-oxo-1-((4-(3-(pyridin-4-yl)phenyl)thiazol-2-yl)amino)butan-2-yl)-1-(methylsulfonyl)-1H-pyrrole-3-carboxamide] | > 0.01 µM | > 0.01 µM
CN(C)CC[C@@H](NC(=O)c1ccn(S(C)(=O)=O)c1)C(=O)Nc1nc(-c2cccc(-c3ccncc3)c2)cs1 [Compound 79, (R)—N-(4-(dimethylamino)-1-oxo-1-((4-(3-(pyridin-4-yl)phenyl)thiazol-2-yl)amino)butan-2-yl)-1-(methylsulfonyl)-1H-pyrrole-3-carboxamide] | > 0.1 µM | > 0.1 µM
Cc1cc(-c2cccc(-c3csc(NC(=O)CNC(=O)c4ccn(S(C)(=O)=O)c4)n3)c2)cc(C)n1 [Compound 81, N-(2-((4-(3-(2,6-dimethylpyridin-4-yl)phenyl)thiazol-2-yl)amino)-2-oxoethyl)-1-(methylsulfonyl)-1H-pyrrole-3-carboxamide] | < 0.01 µM | < 0.01 µM
CS(=O)(=O)n1ccc(C(=O)NCC(=O)Nc2nc(-c3cccc(-c4ccnc(C(F)(F)F)c4)c3)cs2)c1 [Compound 82, 1-(methylsulfonyl)-N-(2-oxo-2-((4-(3-(2-(trifluoromethyl)pyridin-4-yl)phenyl)thiazol-2-yl)amino)ethyl)-1H-pyrrole-3-carboxamide] | < 0.01 µM | < 0.01 µM

Reference: patent publication US20230079819A1, “COMPOUNDS AND USES THEREOF” (Foghorn Therapeutics Inc., priority 2019, published 2023)
